Data set [1] is described as follows: Intrinsic dissolution of high melt and low melt forms of 17-AAG in ethanol. In kind it is physicochemical. How it is done: The performance of an active pharmaceutical ingredient (i.e., dissolution rate) can be affected by polymorphic state. The intrinsic dissolution of the high melt and low melt forms of 17-AAG were determined in ethanol. Ethanol was chosen as the solvent since 17-AAG is soluble in ethanol.

Data set [2] in a line: Solvent stability of low melt form (slurry in H2O:EtOH 90:10). In kind it is physicochemical. How it is done: 17-AAG may be prepared from geldanamycin by reacting with allyamine in dry THF under a nitrogen atmosphere. The crude product may be purified by slurrying in H2O:EtOH (90:10), and the washed crystals obtained have a melting point of 206-212° C. by capillary melting point technique. […] The two 17-AAG products are designated as the low melt form and high melt form.
MP=147-155° C. ^1 H NMR and HPLC are consistent with the desired product.

A further data set in a line: in vitro. In kind it is in vitro ADME. Conditions: human, Caco-2. From the text:
The permeability of the pharmaceutical active ingredient across the gastrointestinal membrane may be estimated from it permeability across a Caco-2 cell monolayer using standard techniques (e.g. Chong S et al. Pharmaceutical Research 1997 14(12):1835-1837). The reference is hereby expressly incorporated by reference.
Propranolol was included in each assay as a high permeability control compound.

With `C=CCNC1=C2C[C@@H](C)C[C@H](OC)[C@H](O)[C@@H](C)/C=C(\C)[C@H](OC(N)=O)[C@@H](OC)/C=C\C=C(/C)C(=O)NC(=CC1=O)C2=O` [high melt form, 17-allylamino-17-demethoxygeldanamycin], the intrinsic dissolution rate in data set [1] turned out to be 0.550 mg/cm^2/min.

On to `C=CCNC1=C2C[C@@H](C)C[C@H](OC)[C@H](O)[C@@H](C)/C=C(\C)[C@H](OC(N)=O)[C@@H](OC)/C=C\C=C(/C)C(=O)NC(=CC1=O)C2=O` [low melt form of 17-AAG, 17-allylamino-17-demethoxygeldanamycin], for which, in data set [1], the intrinsic dissolution rate came out at 0.885 mg/cm^2/min and the “percent higher intrinsic dissolution rate of low melt form vs high melt form” value was determined as 60%. Further, in data set [2], the “conversion of polymorphic form on slurrying” value is recorded as “no conversion to the high melt form was observed”.

The term Papp denotes a coefficient for how fast a substance crosses the barrier. As for `CC(C)NCC(O)COc1cccc2ccccc12` (centres unmarked) [propranolol], the apparent permeability coefficient (Papp) in the data set “in vitro” turned out to be 16 ×10⁻⁶ cm/s.
